Results reported in US20080305186A1, “Method and Composition for the Treatment of Cardiac Hypertrophy” (BOARD OF REGENTS, THE UNIVERSITY OF TEXAS SYSTEM, priority 2007, published 2008).

System: cardiac gene expression
Assay: Microarray analysis of cardiac gene expression (GeneChip Mouse Genome 430 2.0)
Assay type: in vivo, mice
Details: for FC Transglutaminase 2, C polypeptide (Tgm2): CH vs normal FC 2.0
Method: Microarray Sample Preparation and Analysis. Animal hearts were rapidly removed, and the atria and right ventricles were cut and immediately plunged into TRIzol Reagent (Life Technologies). Total RNA was isolated following the manufacturer's instructions, purified by phenol-chloroform extraction and then ethanol precipitation, and 20 μg further processed for microarray analysis. Briefly, cDNA synthesis, in vitro transcription, and labeling and fragmentation to produce the oligonucleotide probes were performed as instructed by the GeneChip manufacturer (Affymetrix). The probes were first hybridized to a test array (Affymetrix) and then to the GeneChip Mouse Genome 430 2.0 Array, using the GeneChip Hybridization Oven 640. The chips were washed in a GeneChip Fluidics Station 450 (Affymetrix), and the results were visualized with a GeneChip G7 scanner (Affymetrix). RMA normalization, pairwise comparisons, Student's t test and Benjamini and Hochberg correction were subsequently performed using GeneSifter (VizX Labs, Seattle, Wash.) and Spotfire DecisionSite 8.3 (Spotfire, Inc., Somerville, Mass.).
Effects on Gene Expression Profile. […] One mouse heart was used for each array, and was performed in triplicate, generating a total of 12 arrays. GeneSifter was used to perform RMA normalization, pairwise comparisons of averaged signal intensity values, and Student's t-test with Benjamini and Hochberg correction, and Spotfire was used to perform pairwise comparisons. […] Additionally, genes that were altered between any two N or cardiac hypertrophy samples were removed, as these alterations most likely represented normal variations between mice.

C[C@H]1c2cccc(O)c2C(=O)C2=C(O)[C@]3(O)C(=O)C(C(N)=O)=C(O)[C@@H](N(C)C)[C@@H]3[C@@H](O)[C@@H]21 [doxycycline]
FC IBR domain containing 2 (Ibrdc2) (GenBank AV274826, vs mice given only isoproterenol): −2.1 | FC Xanthine dehydrogenase (Xdh) (GenBank AV286265, heart, drug + isoproterenol vs isoproterenol-only mice, CH vs normal FC 3.9): −3.0 fold | FC UDP-N-acetyl-alpha-D-galactosamine:polypeptide N-acetylgalactosaminyltransferase-like 2 (Galntl2) (GenBank AV290688, heart, drug + isoproterenol vs isoproterenol-only mice, CH vs normal FC 3.3): −2.8 fold | FC Ras association (RalGDS/AF-6) domain family 4 (Neuropeptide signaling) (GenBank AV291679, vs mice given only isoproterenol): −2.2 | FC Syntaxin 3 (Stx3) (GenBank AV296217, vs mice given only isoproterenol): −1.6 | FC EST (GenBank AV318727, vs mice given only isoproterenol): 2.6 | FC F-box-WD40 repeat protein 6 (Fbxw6) (GenBank AV338062, vs mice given only isoproterenol): 1.9 | FC EST (GenBank AW123929, vs mice given only isoproterenol): −1.8 | FC EST (GenBank AW208574, vs mice given only isoproterenol): −1.9 | FC Myristoylated alanine rich protein kinase C substrate (Marcks) (GenBank AW546141, vs mice given only isoproterenol): 1.7 | FC Transmembrane protein 23 (Tmem23) (GenBank AW985925, heart, drug + isoproterenol vs isoproterenol-only mice, CH vs normal FC 2.8): −2.1 fold | FC Nuclear factor, interleukin 3, regulated (Nfil3) (GenBank AY061760, vs mice given only isoproterenol): −2.5 | FC RasGEF domain family, member 1B (Rasgef1b) (GenBank BB003229, vs mice given only isoproterenol): −2.4 | FC Transglutaminase 2, C polypeptide (Tgm2) (GenBank BB041811, heart, drug + isoproterenol vs isoproterenol-only mice): −1.7 fold | FC EST (GenBank BB069531, vs mice given only isoproterenol): 2.1 | FC G protein-coupled receptor 116 (Gprl16) (GenBank BB083808, vs mice given only isoproterenol): −2.0 | FC EST (GenBank BB096843, vs mice given only isoproterenol): −1.8 | FC RAN binding protein 9 (Ranbp9) (GenBank BB106402, vs mice given only isoproterenol): −2.6 | FC EST (GenBank BB109391, vs mice given only isoproterenol): −1.8 | FC Tumorsuppressor St7-like (St7l) (GenBank BB122084, heart, drug + isoproterenol vs isoproterenol-only mice, CH vs normal FC 2.3): −2.1 fold | FC Kyphoscoliosis peptidase (Ky) (GenBank BB126077, vs mice given only isoproterenol): 1.8 | FC EST (GenBank BB127176, vs mice given only isoproterenol): −1.7 | FC Endothelial differentiation sphingolipid G-protein-coupled receptor 1 (Edg1) (GenBank BB133079, vs mice given only isoproterenol): −2.4 | FC Interferon induced transmembrane protein 6 (Ifitm6) (GenBank BB193024, vs mice given only isoproterenol): −3.3 | FC RAS, dexamethasone-induced 1 (Rasd1) (GenBank BB217136, vs mice given only isoproterenol): −3.3 | FC EST (GenBank BB219003, vs mice given only isoproterenol): −2.1 | FC Inner membrane protein, mitochondrial (Immt) (GenBank BB222675, vs mice given only isoproterenol): 4.9 | FC EST (GenBank BB236747, vs mice given only isoproterenol): −1.7 | FC Procollagen-proline, 2-oxoglutarate 4-dioxygenase (proline 4-hydroxylase), alpha 1 polypeptide (P4ha1) (GenBank BB253720, vs mice given only isoproterenol): 1.9 | FC MAD homolog 1 (Smad1) (GenBank BB257769, vs mice given only isoproterenol): −1.9 | FC EST (GenBank BB312992, vs mice given only isoproterenol): −2.1 | FC Zi finger and BTB domain containing 16 (Zbtb16) (GenBank BB326368, heart, drug + isoproterenol vs isoproterenol-only mice, CH vs normal FC 5.1): −1.8 fold | FC Kelch-like 24 (Khl24) (GenBank BB328076, vs mice given only isoproterenol): −2.2 | FC Tissue inhibitor of metalloproteinase 4 (Timp4) (GenBank BB328405, heart, drug + isoproterenol vs isoproterenol-only mice, CH vs normal FC 5.6): −2.8 fold | FC Leucine-rich repeat-containing 8c (Lrrc8c) (GenBank BB333759, vs mice given only isoproterenol): −1.7 | FC EST (GenBank BB335101, vs mice given only isoproterenol): 2.2 | FC Insulin receptor substrate 1 (Irs1) (GenBank BB345784, vs mice given only isoproterenol): −1.7 | FC Tribbles homolog 2 (Trib2) (GenBank BB354684, heart, drug + isoproterenol vs isoproterenol-only mice, CH vs normal FC −1.9): 1.6 fold | FC EST (GenBank BB374879, vs mice given only isoproterenol): 2.7 | FC Transcription factor Dp 2 (Tfdp2) (GenBank BB405795, heart, drug + isoproterenol vs isoproterenol-only mice, CH vs normal FC 2.8): −2.2 fold | FC Inositol 1,4,5-trisphosphate 3-kinase B (Itpkb) (GenBank BB434111, vs mice given only isoproterenol): 2.5 | FC EST (GenBank BB476794, vs mice given only isoproterenol): 1.9 | FC Histone 1, H1e (Hist1h2be) (GenBank BB490701, vs mice given only isoproterenol): −1.7 | FC RNA, U22 small nucleolar (GenBank BB493265, vs mice given only isoproterenol): −1.8 | FC F-box and leucine-rich repeat protein 13 (Fbxl13) (GenBank BB503935, vs mice given only isoproterenol): 1.9 | FC OTU domain, ubiquitin aldehyde binding 1 (Otub1) (GenBank BB534069, vs mice given only isoproterenol): 2.0 | FC EST (GenBank BB535847, vs mice given only isoproterenol): −2.0 | FC Transglutaminase 2, C polypeptide (Tgm2) (GenBank BB550124, heart, drug + isoproterenol vs isoproterenol-only mice): −1.7 fold | FC Von Willebrand factor homolog (Vwf) (GenBank BB667216, heart, drug + isoproterenol vs isoproterenol-only mice, CH vs normal FC 2.3): −1.7 fold | FC Dehydrogenase E1 and transketolase domain containing 1 (Dhtkd1) (GenBank BB667395, vs mice given only isoproterenol): −2.1 | FC Fibroblast growth factor receptor 3 (Fgfr3) (GenBank BB732903, vs mice given only isoproterenol): −2.1 | FC Period homolog 3 (Per3) (GenBank BB757992, vs mice given only isoproterenol): 2.3 | FC Serine palmitoyltransferase, long chain base subunit 2 (Sptlc2) (GenBank BB794710, vs mice given only isoproterenol): −2.1 | FC Nucleoplasmin 3 (Npm3) (GenBank BB811478, vs mice given only isoproterenol): 2.1 | FC Heterogeneous nuclear ribonucleoprotein R (Hnrpr) (GenBank BB822465, vs mice given only isoproterenol): 1.8 | FC Integrator complex subunit 3 (Ints3) (GenBank BC003209, vs mice given only isoproterenol): −2.2 | FC Solute carrier family 39 (iron-regulated transporter), member 1 (Slc40a1) (GenBank BC003438, vs mice given only isoproterenol): −2.1 | FC Transforming, acidic coiled-coil containing protein 2 (Tacc2) (GenBank BC004057, heart, drug + isoproterenol vs isoproterenol-only mice, CH vs normal FC 2.8): −2.1 fold | FC Lutheran blood group (Auberger b antigen iluded) (Bcam) (GenBank BC004826, vs mice given only isoproterenol): 1.6 | FC Tubulin, beta 2c (Tubb2c) (GenBank BC005547, heart, drug + isoproterenol vs isoproterenol-only mice, CH vs normal FC −1.7): 2.5 fold
